These results are taken from US11219614B2, “Combination cancer therapy with pentaaza macrocyclic ring complex and ascorbate compound” (Galera Labs, LLC, priority 2016, dated 2022).

Series [1] deals with head and neck squamous cell carcinoma cells (SQ20B). Nature of the series: clonogenic cell survival assay, SQ20B. It is filed as cell-based, Human. The protocol: FIG. 5 is a plot showing the surviving fraction of SQ20B cells for increasing amounts of ascorbate, as determined by a clonogenic cell survival assay used to determine the effects of the compound alone and in combination with a pentaaza macrocyclic ring complex (GC4419). Human head and neck squamous cell carcinoma cells (SQ20B) were exponentially grown in culture for 48 hours. The cells were then treated with 5-20 μM GC4419 for 24 hours, followed by treatment with 5-20 pmol/cell ascorbate for 1 hour. The cells were then trypsinized, counted, replated at varying lower densities and incubated. Plates were stained and counted for clonogenic survival assays.
FIG. 7 is a graph showing the surviving fraction of SQ20B cells treated with ascorbate and combinations including ascorbate. The effects of ascorbate in combination with a pentaaza macrocyclic ring complex (GC4419) was tested in a clonogenic cell survival assay to determine the effects of the combination alone and when paired with ionizing radiation. Human head and neck squamous cell carcinoma cells (SQ20B) were plated and grown in culture for 48 hours. The cells were then treated with 5 μM GC4419 for 24 hours and 10 pmol/cell ascorbate (AA) for 1 hour, either alone, in combination (GC+AA), and/or paired with a dose of ionizing radiation (2 Gy). After the ionizing radiation dose, the cells were trypsinized, counted, replated at varying lower densities and incubated. Plates were stained and counted for clonogenic survival assays.
FIG. 8 is a graph showing the surviving fraction of SQ20B cells treated with ascorbate and combinations including ascorbate. The effects of ascorbate in combination with a pentaaza macrocyclic ring complex (GC4419) was tested in a clonogenic cell survival assay to determine the effects of the combination alone and when paired with the chemotherapeutic agent cisplatin. Human head and neck squamous cell carcinoma cells (SQ20B) were plated and grown in culture for 48 hours. The cells were then treated with cisplatin for 6 hours, 10 μM GC4419 for 3 hours, and 10 pmol/cell ascorbate (AA) for 1 hour. The cells were then trypsinized, counted, replated at varying lower densities and incubated. Plates were stained and counted for clonogenic survival assays.
The effect of ascorbate was tested in a clonogenic cell survival assay to determine the effects of the compound alone and in combination with a pentaaza macrocyclic ring complex (GC4419). Human head and neck squamous cell carcinoma cells (SQ20B) were exponentially grown in culture for 48 hours. The cells were then treated with 5-20 μM GC4419 for 24 hours, followed by treatment with 5-20 pmol/cell ascorbate for 1 hour. The cells were then trypsinized, counted, replated at varying lower densities and incubated. Plates were stained and counted for clonogenic survival assays.
The effects of ascorbate in combination with a pentaaza macrocyclic ring complex (GC4419) was tested in a clonogenic cell survival assay to determine the effects of the combination alone and when paired with ionizing radiation. Human head and neck squamous cell carcinoma cells (SQ20B) were plated and grown in culture for 48 hours. […] After the ionizing radiation dose, the cells were trypsinized, counted, replated at varying lower densities and incubated. Plates were stained and counted for clonogenic survival assays. […]

In series [2] the test system is head and neck squamous cell carcinoma cells (SCC25). Nature of the series: clonogenic cell survival assay, SCC25. In kind it is cell-based, Human. The settings on record: ascorbate 1 h in combination with 5, 10 or 20 μM GC4419 24 h, both present at the same time; compared to monotherapies or sequential treatment with media replacement; FIG. 3. How it is done:
FIG. 3 is a plot showing the surviving fraction of SCC25 cells for increasing amounts of ascorbate, as determined by a clonogenic cell survival assay used to determine the effects of the compound alone and in combination with a pentaaza macrocyclic ring complex (GC4419). Human head and neck squamous cell carcinoma cells (SCC25) were exponentially grown in culture for 24 hours. The cells were then treated with 5-20 μM GC4419 for 24 hours and ascorbate (Asc) for one hour, followed by immediate clonogenic assay. The cells were trypsinized, counted, replated at varying lower densities and incubated. Plates were stained and counted for clonogenic survival assays.
The effect of ascorbate was tested in a clonogenic cell survival assay to determine the effects of the compound alone and in combination with a pentaaza macrocyclic ring complex (GC4419). Human head and neck squamous cell carcinoma cells (SCC25) were exponentially grown in culture for 24 hours. The cells were then treated with 5-20 μM GC4419 for 24 hours, and ascorbate (Asc) for one hour, followed by immediate clonogenic assay. The cells were trypsinized, counted, replated at varying lower densities and incubated. Plates were stained and counted for clonogenic survival assays.

SMILES strings stand for the structures.

With `[Cl][Mn][Cl].c1cc2nc(c1)CN[C@H]1CCCC[C@@H]1NCCN[C@H]1CCCC[C@@H]1NC2` [GC4419], the “synergistic activity of the combination” value in series [1] (5 μM GC4419 24 h + 10 pmol/cell ascorbate 1 h (GC+AA), FIG. 7) is on record as “more than merely an additive effect”. The “cell killing (clonogenic survival)” value in series [1] (5 μM GC4419 24 h + 10 pmol/cell ascorbate 1 h (GC+AA), compared to control and to each alone, FIG. 7) is “significant enhancements in cell killing”; in series [1] (cisplatin 6 h + 10 μM GC4419 3 h + 10 pmol/cell ascorbate 1 h, compared to control and cisplatin, GC4419 or ascorbate monotherapies, FIG. 8), “significant enhancements in cell killing”; in series [2], “significant enhancements in cell killing”. In series [1] (5-20 pmol/cell ascorbate 1 h in combination with 5, 10 or 20 μM GC4419 24 h, FIG. 5), the “cytotoxicity (clonogenic survival)” value is reported as “increases the cytotoxicity of GC4419 or ascorbate”. For the same molecule, in series [1] (GC+AA+IR (2 Gy) compared to IR 2Gy alone, FIG. 7), the “sensitization to ionizing radiation” value is given as “sensitized the cancer cells to radiation”.
